Data published in patent publication US20260007639A1, “COMPOUNDS FOR THE TREATMENT OF NEUROMUSCULAR DISORDERS” (NMD PHARMA A/S, priority 2017, published 2026).
Like-named read-outs stand apart in the source and are kept apart here.

Experiments:
rat soleus muscles [1] = experiment: Recovery of nerve-stimulated force in isolated rat soleus muscles exposed to sub-maximal tubocurarine (Table 1); conditions: % change in AUC compared to AUC before addition, after 40 min in tubocurarine
Description: The motor nerve was stimulated every 10 min for 2 s with 30 Hz with field stimulation using short duration pulses. […] Traces are shown before addition tubocurarine, after 40 min with tubocurarine, and after 110 min tubocurarine. […] This recovery of force was used in Table 1.
Experiments were performed using rat soleus muscles from either young (4-wk-old) or adult Wistar rats (12-14-week-old). Animal handling, killing and isolation of muscle is described elsewhere All experiments were performed using normal Krebs-Ringer bicarbonate solution (NKR). In solutions with elevated Mg^2+, MgCl^2 was added to NKR-solution causing minor increases in osmolarity and ionic strength. In solutions with elevated K^+, 4 mM NaCl was replaced by 4 mM KCl in the NKR.
In all contraction experiments, isometric force production was determined and force produced during contractions was quantified by measuring the integral of the force response (AUC). Stimulation and force recordings have been described elsewhere. […] In these latter experiments, extracellular recordings of action potentials (M-waves) could be measured without temporal overlap with stimulation artefacts.
The aim was to find compounds that by inhibition of CIC-1 channels can recover nerve-stimulated force under conditions of fatigue including conditions where fatigue is caused by compromised neuromuscular transmission. Neuromuscular transmission dysfunction can develop because of both pre- and/or post-synaptic complications in connection with a disorder or as part of neuromuscular blockade during/after surgery. In the initial series of drug testing, experiments were performed with isolated muscles in the presence of sub-maximal ACh receptor antagonist tubocurarine. Since the inclusion of tubocurarine caused a partial loss of neuromuscular transmission this experiment mimics the conditions in myasthenia gravis and neuromuscular blockade. To mimic conditions with pre-synaptic complication (Lambert Eaton syndrome, motor neuron disorder, polyneuropathy) the intact nerve-muscle preparations were incubated at elevated extracellular Mg^2+, which is known to suppress release of ACh from nerve terminals of motor neurons. […]
For comparison with the muscle only exposed to tubocurarine (grey trace), the two traces have been overlaid. […] For comparison, muscles only exposed to tubocurarine have been included. The dotted line indicates the recovery of force with C8 when compared to the force production before its addition. This value was used in Table 1 for evaluation of the efficacy of the different compounds in recovering force.

rat soleus muscles [2] = experiment: Recovery of nerve-stimulated force in isolated rat soleus muscles with ACh receptors inhibited by 2 μM rocuronium; conditions: 50 μM C8 added in the presence of 2 μM rocuronium; 8 muscles; p<0.01
Description: In a separate series of experiments with 8 isolated rat soleus muscles, ACh receptors were inhibited using 2 μM rocuronium, which is a clinically used neuromuscular blocking agent. Under these conditions the nerve-stimulated force was reduced to 51±5% of force before rocuronium. […] This illustrates the potential of these compounds to be used as reversal agents.

[3] = Pharmacokinetic analysis of a single I.P. dose of C8 in rats (Table 6); type: in vivo, Sprague-Dawley rats; conditions: one-bolus I.P. injection
Description: This part of the study was performed by Pipeline Biotech A/S (Spørring, Denmark). […] Plasma concentrations (free and bound) were determined by OnTarget Chemistry (Uppsala, Sweden, Project No.: PB243-001).
Before conducting in vivo experiments with animal models of myasthenia gravis, some pharmacokinetic details were obtained for C8 in response to one-bolus I.P. injection.

rats [4] = experiment: Rotarod running performance of rats after I.P. tubocurarine (myasthenia like phenotype); type: in vivo, rat; conditions: C8 20 mg/kg I.P. 2 hrs before tubocurarine 0.13 mg/kg I.P.; tested 21 minutes after tubocurarine
Description: FIG. 9A illustrates the design of the experiments. Prior to Day One the animals had been familiarized to the rotarod in three training sessions distributed over two days.
(§1) In both series of experiments, running performance was tested on a rotarod using a protocol where the rod was accelerated gradually over a 5 min period, and the running time and covered distance before falling off the rod were measured.
Experiments with tubocurarine were carried out over two days, and on each day the effect of tubocurarine on running performance was tested. On the first day only tubocurarine was injected. […] On the second day, the animals were first allowed to run on the rotarod, and all animals performed normally. […] The allocation of the animals into the two groups (C8 or sham) was random and unknown to the experimenter (blinded experimental design).
In the first series of in vivo experiments, myasthenia gravis was simply mimicked by I.P. injection of tubocurarine (0.13 mg/kg) in animals that had been familiarized to running on the rotarod. On the first of two consecutive days, tubocurarine was injected I.P. and the running performance of the animal was tested 21 minutes after this injection. On the second day of experimentation, the animals first performed a test run to ensure that they were no longer affected by the tubocurarine injected the day before. […]

rat soleus muscles [5] = experiment: Recovery of nerve-stimulated force in isolated rat soleus muscles exposed to 3.5 mM Mg2+ (Table 2); conditions: rat soleus exposed to 3.5 mM Mg2+, force before addition 38 ± 6 % of control
rat soleus muscle = type: cell-based; conditions: μ-conotoxin GiiiB present
human muscles = conditions: 150 μM C8; isolated human muscle
rats [6] = experiment: Rotarod running performance in passive myasthenia gravis induced in rats with MAB35 monoclonal antibody; type: in vivo, rat; conditions: rats with stable reduction in performance after MAB35, versus sham
Description: Prior to I.P. injection of MAB35 the animals had been familiarized to the rotarod over three training sessions distributed over two days. […] After this treatment performance was monitored every second hour. * Indicates significant different as evaluated using student t-test.
as §1
In experiments with MAB35, animals were first familiarized with the rotarod over two consecutive days and then injected I.P. with MAB35. After injection, rotarod performance was then again monitored regularly over the consecutive two days. […] A considerable number of animals, however, became moribund failing to walk and they had altered ventilation (rapid) and pronounced ptosis. These animals were not included in experiments.
In the last series of experiments, myasthenia gravis was mimicked in rats by inducing an immunological reaction against the motor endplate of muscle fibers using monoclonal antibody against the nicotinic ACh receptor in muscle fibers. Again the animals had been familiarized to the rotarod before the MAB35 injection. […] From FIG. 10 it can be seen that upon injection sham treatment the performance further declined.

rat soleus muscles [7] = experiment: Tubocurarine concentration required to depress nerve-stimulated force by 50% (Kd,tub), combination with neostigmine or pyridostigmine (Table 4); conditions: pre-incubation with 50 μM C8, 10 nM neostigmine or both
Description: Muscles from 4-week-old rats were stimulated to contract by activating the motor nerve with short duration pulses in field stimulation. Muscles contracted every 10 min for 2 s in response to 30 Hz stimulation. Four different experimental conditions were used. […] After this pre-incubation, increasing concentrations of tubocurarine were added to the bath solutions with 60 min (corresponding to six contractions) between each increase in tubocurarine. […] FIG. 5C similar to FIG. 5A but this muscle had been pre-incubated with neostigmine. […] The force integral (AUC) was determined at each tubocurarine concentration. Such AUC determinations were plotted against tubocurarine concentration for each muscle.
CIC-1 is a novel target in treatment of neuromuscular complications and it was therefore explored whether this approach for symptomatic treatment could be used in combination with existing symptomatic treatment approaches. […] To quantify the effect of compounds on tubocurarine sensitivity, the force at the different tubocurarine concentrations was determined. In plots of nerve-stimulated force against tubocurarine concentration (FIG. 5E) Kd, tub was determined by fitting four parameter sigmoidal functions to the data and the Kd, tub for the different compounds have been collected in Table 4.

## C[C@H](Oc1ccc(Br)cc1)C(=O)O [Compound C8, (2S)-2-(4-bromophenoxy)propanoic acid]
Rat soleus muscles [1]; 50 μM compound
  50 μM % change after addition (AUC force): 16%
Rat soleus muscles [1]; 150 μM compound
  150 μM % change after addition (AUC force): 23%
Rat soleus muscles [2]
  nerve-stimulated contractile force, % of force before rocuronium: 81±4%
[3]
  AUC 0-inf_obs: 205.381 µg·h/mL
  AUC 0-t: 203.635 µg·h/mL
  C0: 24533 ng/mL
  CI_obs: 48.69 mL/h
  Cmax: 44600 ng/mL
  Tmax: 0.5 h
  VD_obs: 259.62 mL
  t1/2: 3.70 h
Rats [4]
  increase in running performance (distance on rotarod) on the second day compared to the first day: around 150%
Rat soleus muscles [5]; 50 μM compound
  50 μM % change after addition (AUC force): 13 ± 4%
Rat soleus muscles [5]; 100 μM compound
  100 μM % change after addition (AUC force): 26 ± 5%
Rat soleus muscle; 10 μM C8
  EPP amplitude compared to control conditions: significantly larger EPPs
Rat soleus muscle; 25 μM C8
  EPP amplitude compared to control conditions: significantly larger EPPs
Human muscles
  contractile force at elevated K+ and TTX: markedly recovery
Rats [6]; C8 20 mg/kg
  rotarod running performance after treatment: decline was reduced
Rats [6]; C8 30 mg/kg
  rotarod running performance after treatment: clear recovery of performance
Rat soleus muscles [7]
  nerve-stimulated force at different tubocurarine concentrations compared to control: elevated nerve-stimulated force
